Assay results: ChEMBL document CHEMBL3885881, “DrugMatrix”

Organism: Rattus norvegicus
Test: DrugMatrix - Regimen: Daily Repeat
Type: toxicity, organism-based, Sprague-Dawley
Parameters: regimen Daily Repeat, gender Male, age 6-8 weeks
Conditions: in vivo, po, 500 mg/kg, route oral GAVAGE, dose level High, vehicle 100 % WATER; for ABSOLUTE BASOPHIL / ABSOLUTE EOSINOPHIL / ABSOLUTE LYMPHOCYTE / ABSOLUTE MONOCYTE / ABSOLUTE SEGMENTED NEUTROPHIL / BASOPHIL / EOSINOPHIL / ERYTHROCYTE COUNT / HEMATOCRIT / HEMOGLOBIN / LEUKOCYTE COUNT / LYMPHOCYTE / MEAN CORPUSCULAR HEMOGLOBIN / MEAN CORPUSCULAR HEMOGLOBIN CONCENTRATION / MEAN CORPUSCULAR VOLUME / MONOCYTE / NEUTROPHIL / NUCLEATED RED BLOOD CELLS / PLATELET COUNT: tissue Blood; for ALANINE AMINOTRANSFERASE / ALBUMIN / ALKALINE PHOSPHATASE / ASPARTATE AMINOTRANSFERASE / BLOOD UREA NITROGEN / CARBON DIOXIDE / CHLORIDE / CHOLESTEROL / CREATINE PHOSPHOKINASE / CREATININE / GLUCOSE / LACTATE DEHYDROGENASE / LIPASE / PHOSPHORUS / POTASSIUM / SODIUM / TOTAL BILIRUBIN / TOTAL PROTEIN / URIC ACID: tissue Plasma

## Cc1c(O)c(=O)ccn1C [DEFERIPRONE]
72 h, time 3 day
  ABSOLUTE BASOPHIL: 0 CELLS/uL
  ABSOLUTE EOSINOPHIL: 97 CELLS/uL
  ABSOLUTE LYMPHOCYTE: 8507 CELLS/uL
  ABSOLUTE MONOCYTE: 223 CELLS/uL
  ABSOLUTE SEGMENTED NEUTROPHIL: 223 CELLS/uL
  BASOPHIL: 0%
  EOSINOPHIL: 1%
  ERYTHROCYTE COUNT: 4.97 x10E6/uL
  HEMATOCRIT: 30.95%
  HEMOGLOBIN: 11.7 G/DL
  LEUKOCYTE COUNT: 9.05 x10E3/uL
  LYMPHOCYTE: 94%
  MEAN CORPUSCULAR HEMOGLOBIN: 23.55 pg
  MEAN CORPUSCULAR HEMOGLOBIN CONCENTRATION: 37.8 G/DL
  MEAN CORPUSCULAR VOLUME: 62.15 fL
  MONOCYTE: 2.5%
  NEUTROPHIL: 2.5%
  NUCLEATED RED BLOOD CELLS: 0 /100WBC
  PLATELET COUNT: 1456.5 x10E3/uL
  ALANINE AMINOTRANSFERASE: 39 u/L
  ALBUMIN: 4.4 G/DL
  ALKALINE PHOSPHATASE: 373 u/L
  ASPARTATE AMINOTRANSFERASE: 80 u/L
  BLOOD UREA NITROGEN: 18.5 mg/dL
  CARBON DIOXIDE: 22.5 mmol/L
  CHLORIDE: 105.5 MEQ/L
  CHOLESTEROL: 119 mg/dL
  CREATINE PHOSPHOKINASE: 322.5 u/L
  CREATININE: 0.18 mg/dL
  GLUCOSE: 131 mg/dL
  LACTATE DEHYDROGENASE: 239 u/L
  LIPASE: 10 u/L
  PHOSPHORUS: 11.5 mg/dL
  POTASSIUM: 6.21 MEQ/L
  SODIUM: 143.8 MEQ/L
  TOTAL BILIRUBIN: 0.25 mg/dL
  TOTAL PROTEIN: 6 G/DL
  URIC ACID: 1.45 mg/dL
120 h, time 5 day
  ABSOLUTE BASOPHIL: 0 CELLS/uL
  ABSOLUTE EOSINOPHIL: 0 CELLS/uL
  ABSOLUTE LYMPHOCYTE: 9110 CELLS/uL
  ABSOLUTE MONOCYTE: 78 CELLS/uL
  ABSOLUTE SEGMENTED NEUTROPHIL: 412 CELLS/uL
  BASOPHIL: 0%
  EOSINOPHIL: 0%
  ERYTHROCYTE COUNT: 5.3 x10E6/uL
  HEMATOCRIT: 33.8%
  HEMOGLOBIN: 12.93 G/DL
  LEUKOCYTE COUNT: 9.6 x10E3/uL
  LYMPHOCYTE: 95.33%
  MEAN CORPUSCULAR HEMOGLOBIN: 24.43 pg
  MEAN CORPUSCULAR HEMOGLOBIN CONCENTRATION: 38.27 G/DL
  MEAN CORPUSCULAR VOLUME: 63.8 fL
  MONOCYTE: 0.67%
  NEUTROPHIL: 4%
  NUCLEATED RED BLOOD CELLS: 0 /100WBC
  PLATELET COUNT: 1024.33 x10E3/uL
  ALANINE AMINOTRANSFERASE: 34.33 u/L
  ALBUMIN: 4.7 G/DL
  ALKALINE PHOSPHATASE: 261 u/L
  ASPARTATE AMINOTRANSFERASE: 61.33 u/L
  BLOOD UREA NITROGEN: 17 mg/dL
  CARBON DIOXIDE: 26.33 mmol/L
  CHLORIDE: 109.33 MEQ/L
  CHOLESTEROL: 127 mg/dL
  CREATINE PHOSPHOKINASE: 232.33 u/L
  CREATININE: 0.21 mg/dL
  GLUCOSE: 140.33 mg/dL
  LACTATE DEHYDROGENASE: 60.33 u/L
  LIPASE: 9 u/L
  PHOSPHORUS: 11.03 mg/dL
  POTASSIUM: 6.28 MEQ/L
  SODIUM: 148.93 MEQ/L
  TOTAL BILIRUBIN: 0.2 mg/dL
  TOTAL PROTEIN: 6.63 G/DL
  URIC ACID: 1.83 mg/dL
